Measurements published in paper PMC5884652, “New antimicrobial peptide kills drug-resistant pathogens without detectable resistance” (Oncotarget, 2018).
Where two headings read alike, the source gives them in different places. Ends that are not written are not given here.

What was measured:
[1] = tested on: E. coli ATCC 25922; assay type: cell-based, Escherichia coli
Description: (§1) The method for peptide synthesis has been described in detail previously. E. coli ATCC 25922 (LB media), P. aeruginosa ATCC 15692 (NB+0.5% NaCl media), Listeria monocytogenes ATCC 3710 (LB media), Staphylococcus epidermidis ATCC 12228 (LB media), and S. aureus ATCC 29213 (TSB media) were obtained from the American Type Culture Collection (Manassas, VA, USA). Bacillus subtilis KCTC 1998 (LB media), Salmonella typhimurium KCTC 1926 (NB media), and Proteus vulgaris KCTC 2433 (NB media) were obtained from the Korean Collection for Type Cultures (Jeollabuk-do, Korea). E. coli CCARM 1238 was received from the Culture Collection of Antibiotic Resistant Microbes at Seoul Women’s University, Korea. Drug-resistant P. aeruginosa 3543, 3904, 3547, and 4007 and S. aureus 3126, 0027, 5157, 1635, 4761, 5159, 3359, 2122, 1630, 1870, 3511, 5156, and 3518 were resistant strains isolated from patients with otitis media in a Chonnam National University’s hospital.
(§2) The antibacterial activities of AMPs (melittin, clavaspirin, and its analogs) and conventional antibiotic drugs (erythromycin, gentamicin, ampicillin, and piperacidin) were determined using microdilution assays. Bacterial cells were cultured at 37° C in appropriate culture media at pH 5.5 or pH 7.4 until collection during the mid-log phase and suspended in 10 mM sodium phosphate buffer (pH 5.5 or pH 7.4) supplemented with 10% culture medium. Thereafter, 2× serial dilutions of each peptide (0.25–128 μM) or antibiotic (0.25–256 μM) were added to sterile 96-well plates, and aliquots of cell suspension (5 × 10^5 colony forming units (cfu)/mL) were seeded into each well. The samples were then incubated at 37° C for 24 h. At the end of the incubation, the minimum inhibitory concentrations (MICs) of the peptides were determined using a VERSA Max microplate reader (Molecular Devices Co., Sunnyvale, CA, USA) at a wavelength of 600 nm. […] MIC values were calculated as the mean of 3 independent experiments conducted in triplicate.

[2] = tested on: P. aeruginosa ATCC 15692; assay type: cell-based, Pseudomonas aeruginosa
Description: as §1, with “E. coli ATCC 25922 (LB media), P. aeruginosa ATCC 15692 (NB+0.5% NaCl media), Listeria monocytogenes ATCC 3710 (LB media), Staphylococcus epidermidis ATCC 12228 (LB media), and S. aureus ATCC 29213 (TSB media) were obtained from the American Type Culture Collection (Manassas, VA, USA).” left out
as §2, with “Bacterial cells were cultured at 37° C in appropriate culture media at pH 5.5 or pH 7.4 until collection during the mid-log phase and suspended in 10 mM sodium phosphate buffer (pH 5.5 or pH 7.4) supplemented with 10% culture medium.” left out

[3] = tested on: Bacillus subtilis KCTC 1998; assay type: cell-based
Description: as §1, §2

[4] = tested on: Listeria monocytogenes ATCC 3710; assay type: cell-based
Description: as §1, §2

[5] = tested on: Staphylococcus epidermidis ATCC 12228; assay type: cell-based
Description: as §1, §2

[6] = tested on: S. aureus ATCC 29213; assay type: cell-based, Staphylococcus aureus
Description: as §1, with “E. coli ATCC 25922 (LB media), P. aeruginosa ATCC 15692 (NB+0.5% NaCl media), Listeria monocytogenes ATCC 3710 (LB media), Staphylococcus epidermidis ATCC 12228 (LB media), and S. aureus ATCC 29213 (TSB media) were obtained from the American Type Culture Collection (Manassas, VA, USA).” left out
as §2

[7] = tested on: human red blood cells (hRBCs); assay: Hemolysis; assay type: cell-based; settings: PBS buffer containing 8% hRBCs, 1 h, 37° C, absorbance 414 nm, triplicate
Method: Fresh human red blood cells (hRBCs) from healthy donors were centrifuged at 800 × g and washed with phosphate-buffered saline (PBS) until the supernatant was clear. Twofold serial dilutions of the peptides in PBS were added to a 96-well plate, after which the hRBCs were added to obtain a final concentration of 8% (vol/vol). The samples were then incubated with mild agitation for 1 h at 37° C. The samples were then centrifuged at 800 × g for 10 min, and the absorbance of the supernatant was measured at 414 nm. All the measurements were performed in triplicate, and the percentages of hemolysis were calculated using equation 1: % hemolysis=[(A414 in peptide solution−A414 in PBS)/(A414 in […]−A414 in PBS)]×100 (1)
Where 100% hemolysis was defined as the absorbance measured from hRBCs exposed to 1% Triton X-100 and zero hemolysis was characterized using hRBCs alone in PBS [40].

[8] = C18 RP-HPLC retention time as measure of hydrophobicity; assay type: physicochemical; settings: chromatographic, linear gradient of 10–60 acetonitrile containing 0.7% trifluoroacetic acid for 50 min, mean, used as measure of hydrophobicity
Method: Supplementary Table 1: Sequence, molecular mass, retention time, and hemolytic and cytotoxic activities of clavaspirin and its analogues
Designation Sequences Molecular Retention HC /HC a EC /EC b
The meanretention time was analyzed using C18 reversed phase-high-performance liquid chromatography (RP-HPLC).
Samples were run using a linear gradient of 10–60 acetonitrile, containing 0.7% trifluoroacetic acid for 50 min. aHemolytic activity was determined in PBS buffer containing 8% hRBCs. bEffective concentration in HaCaT cells was determined in DMEM buffer containing 10% FBS and 1% PS.

[9] = pH 5.5 (I), 10 mM sodium phosphate buffer, 10% LB, 37° C, 24 h, mean of 3 experiments
[10] = pH 7.4 (II), 10 mM sodium phosphate buffer, 10% LB, 37° C, 24 h, mean of 3 experiments

FKRFIGSVKHGIGHLVHHIGVAL-NH2 [CSP-3]
MIC, E. coli ([1]; ATCC 25922, 24 h, pH 5.5): 2 µM
MIC, E. coli ([1]; ATCC 25922, 24 h, pH 7.4): 4 µM
MIC, P. aeruginosa ([2]; ATCC 15692, 24 h, pH 5.5): 32 µM
MIC, P. aeruginosa ([2]; ATCC 15692, 24 h, pH 7.4): 32 µM
MIC, B. subtilis ([3]; KCTC 1998, 24 h, pH 5.5): 8 µM
MIC, B. subtilis ([3]; KCTC 1998, 24 h, pH 7.4): 16 µM
MIC, L. monocytogenes ([4]; ATCC 3710, 24 h, pH 5.5): 16 µM
MIC, L. monocytogenes ([4]; ATCC 3710, 24 h, pH 7.4): 8 µM
MIC, S. epidermidis ([5]; ATCC 12228, 24 h, pH 5.5): 4 µM
MIC, S. epidermidis ([5]; ATCC 12228, 24 h, pH 7.4): 8 µM
MIC, S. aureus ([6]; ATCC 29213, 24 h, pH 5.5): 8 µM
MIC, S. aureus ([6]; ATCC 29213, 24 h, pH 7.4): 8 µM
HC10 (hemolytic activity) [7]: > 400
HC50 (hemolytic activity) [7]: > 400
Retention time [8]: 21.4 min

FLRFIGSVKHGKGHLVHHIGVAL-NH2 [CSP-4]
MIC, E. coli [1, 9]: 2 µM
MIC, E. coli [1, 10]: 4 µM
MIC, P. aeruginosa [2, 9]: 32 µM
MIC, P. aeruginosa [2, 10]: 32 µM
MIC, B. subtilis [3, 9]: 4 µM
MIC, B. subtilis [3, 10]: 4 µM
MIC, L. monocytogenes [4, 9]: 4 µM
MIC, L. monocytogenes [4, 10]: 4 µM
MIC, S. epidermidis [5, 9]: 4 µM
MIC, S. epidermidis [5, 10]: 8 µM
MIC, S. aureus [6, 9]: 8 µM
MIC, S. aureus [6, 10]: 8 µM
HC10 (hemolytic activity) [7]: > 400
HC50 (hemolytic activity) [7]: > 400
Retention time [8]: 20.2 min
